Experimental data reported in EP1224299B1, “RECOMBINANT PROTEINS AND PEPTIDES FOR ENDOTOXIN BIOSENSORS, ENDOTOXIN REMOVAL, AND ANTI-MICROBIAL AND ANTI-ENDOTOXIN THERAPEUTICS” (priority 1999, dated 2001).
Read-outs that look alike come from different tables or passages of the source. Ends that are not written are not given here. Peptide text beside a SMILES is read from it.

Legend:
[1] = Limulus Kinetic-QCL assay, inhibition of endotoxin-induced LAL reaction; type: biochemical, E.coli 055:B5; details: 200 EU/ml LPS, 1 h at 37 °C, 1000-fold dilution; read-out: 50% endotoxin-neutralizing concentration (ENC50)
Excerpt: The Limulus Kinetic-QCL is a quantitative, kinetic assay for the detection of gram-negative bacterial endotoxin. This assay utilizes the initial part of LAL endotoxin reaction to activate an enzyme, which in turn releases p-nitroaniline from a synthetic substrate, producing a yellow color. The time required before the appearance of a yellow color is inversely proportional to the amount of endotoxin present. Throughout the assay, the absorbance at 405 nm of each well of the microplate was monitored. Using the initial absorbance reading of each well as its own blank, the time required for the absorbance to increase 0.200 absorbance units were calculated as Reaction Time.
Briefly, 25 µl of endotoxin solution (LPS, E.coli 055:B5) at 200 EU/ml was mixed with an equal volume of SSCrFCES at 1 µM, in a series of 2-fold dilutions in LAL reagent water in disposable endotoxin-free glass dilution tubes (BioWhittaker) and incubated at 37°C for one hour. […] The endotoxin activity was then quantified with Limulus Kinetic-QCL. […] The plate was then pre-incubated for > 10 minutes in a temperature-controlled ELISA plate reader. […] The absorbance at 405 nm of each well of the microtitre plate was monitored at time intervals of 5 minutes over a period of 2 hours. A 5 second automix was activated prior to reading. […]
The high sensitivity of the assay allowed for very low levels of endotoxin to be detected. […]

[2] = Hill's plot for interaction between synthetic peptides and lipid A; type: binding
[3] = LPS-induced lethality in galactosamine-sensitized mice; type: in vivo, C57BL/6J mice; details: for protection: 25 and 75 µg peptide; for decrease in LPS-induced lethality: 25 or 75 µg, pre-incubated with LPS 30 min prior to i.p. injection
Protocol: The anti-endotoxin potency of SSCrFCES was investigated in C57BL/6J mice. Mice are typically resistant to endotoxin. However, the sensitivity of mice to endotoxin can be enhanced > 1,000-fold by co-injection with a liver-specific inhibitor, galactosamine (31). In our study, intraperitoneal (i.p.) injection of 2.5 ng of E. coli 055:B5 LPS together with 15 mg of galactosamine hydrochloride in 0.2 ml of saline induced nearly 100% lethality in 18-25 g C57BL/6J mice within 7 hours. Various concentrations of SSCrFCES (1, 2, and 4 µM) and synthetic peptides (25 and 75 µg) were injected intravenously (i.v.) through tail vein 10 minutes after i.p. injection of the LPS-galactosamine mixture. Lethality was observed over 3 days after injection. Statistical analysis were performed using the Kaplan-Meier test (32) and log rank pairwise test.

[4] = test system: 30 clinical strains of P. aeruginosa; assay: Microbicidal concentration (MBC) assay, 30 clinical strains; type: cell-based; details: for MBC50: concentration of peptide required to kill 50% of the strains
Protocol: Test strains cultured on Mueller-Hinton agar (MHA, Becton Dickinson, USA) were inoculated into 10 ml Mueller-Hinton broth (MHB, Becton Dickinson, USA) and grown overnight at 37°C in a shaker incubator (Model 4536, Forma Scientific, Inc., USA) at 230 rpm. Overnight broth cultures were diluted to give a final cell density of 10^5 colony forming units/ml (cfu/ml). One hundred microliters of the bacterial suspension was dispensed into sterile polypropylene 8-strip PCR-tubes (Quality Scientific Plastics, USA). Eleven microliters of serially diluted sushi peptides, ranging in final concentrations of 0.03-4 µg/ml, were then added. The peptides were constituted at 10 times the required test concentrations in 0.01% acetic acid and 0.2% bovine serum albumin (BSA). Positive controls were cultures without test peptides. Uninoculated MHB was used as negative control. All tests were carried out in triplicate.
Cultures were incubated at 37°C for 18-24 h, with the PCR-tubes held in horizontal position and shaken at 230 rpm. Cell counts were determined by standard drop-count method. The killing efficiency for the four sushi peptides were calculated based on standard drop-count method.

[5] = test system: P. aeruginosa ATCC 27853; assay: Killing rate assay; type: cell-based; details: 0.06 µg/ml, initial 10^9 cfu/ml; concentration achieving MBC90
Excerpt: The killing rate assay was adapted from the MBC test above, with different contact time of peptides with the bacteria arrested at regular intervals and plated for colony count. An initial density of 10^9 cfu/ml was used. […] This is one of the important features of an effective therapeutic agent.

[6] = test system: Human erythrocytes; assay: Hemolysis assay, human erythrocytes; type: cell-based; details: for Concentration of peptide to induce 50% haemolysis: red cells of human; for Hemolytic activity: at 100 µg/ml, 0.4% erythrocytes, 1 h
Protocol: Human and rabbit erythrocytes were both used to test the hemolytic activities of the peptides. Whole blood was collected in heparinized sterile syringe, transferred to sterile borosilicate tube and centrifuged at 1200 g for 5 minutes at 4°C. The supernatant including the leukocytes above the erythrocyte pellet was discarded. The erythrocytes were washed 3 times using three volumes of pre-chilled pyrogen-free saline (PFS). An erythrocyte suspension at 0.4% was prepared for the hemolysis assay. Serial two-fold dilutions of the peptides was prepared in PFS and 100 µl aliquots were added to equal volumes of 0.4% erythrocyte solution in a 96-well microtiter plate (Nunclon™ Δ surface, Nunc) to give final peptide concentrations ranging from 6 to 100 µg/ml. The mixtures were incubated at 37°C for 1 h. The intact erythrocytes were then pelleted by centrifuging at 1000 g for 5 min. One hundred µl of the supernatant was transferred to a new 96-well microtiter plate and the amount of hemoglobin released into the supernatant was determined by reading the absorbance at 414nm using a SPECTRAmax™ 340 plate reader with SOFTmax PRO™ version 1.2.0. A positive control with 100 µl of 0.4% erythrocyte lysed in 1% Triton-X 100 was taken as 100% lysis. The negative control was the erythrocytes in PFS alone, which gave minimal lysis. This was taken as 0%.

[7] = ligand LPS S. minnesota Re595; read-out: Equilibrium constant; cited from earlier work
[8] = test system: P.aeruginosa; details: cited from earlier work

## CC[C@H](C)[C@H](NC(=O)[C@H](CCCNC(=N)N)NC(=O)[C@H](C)NC(=O)[C@H](CCSC)NC(=O)CNC(=O)[C@H](CCCCN)NC(=O)[C@H](CC(C)C)NC(=O)[C@H](CCCCN)NC(=O)[C@H](Cc1ccccc1)NC(=O)CN)C(=O)N[C@@H](CO)C(=O)N[C@@H](CS)C(=O)N[C@@H](CC(C)C)C(=O)N1CCC[C@H]1C(=O)N[C@@H](CC(N)=O)C(=O)NCC(=O)N[C@@H](CCC(N)=O)C(=O)N[C@@H](Cc1c[nH]c2ccccc12)C(=O)N[C@@H](CO)C(=O)N[C@@H](CC(N)=O)C(=O)N[C@@H](Cc1ccccc1)C(=O)N1CCC[C@H]1C(=O)N1CCC[C@H]1C(=O)N[C@@H](CCCCN)C(=O)N[C@@H](CS)C(=O)N[C@H](C(=O)N[C@@H](CCCNC(=N)N)C(=O)N[C@@H](CCC(=O)O)C(=O)N[C@@H](CS)C(=O)N[C@@H](C)C(=O)N[C@@H](CCSC)C(=O)N[C@H](C(=O)N[C@@H](CO)C(=O)N[C@@H](CO)C(=O)O)C(C)C)[C@@H](C)CC [S1] (H-GFKLKGMARISCLPNGQWSNFPPKCIRECAMVSS-OH; N-terminus and C-terminus assumed)
[1]
  EC50: 2250 nM
[2]
  Hill's plot co-operativity n: 2.42
[3]
  protection: 22-100%
  decrease in LPS-induced lethality: 20-55%
[4]
  MBC90: 8 nM
  MBC50: ≤0.03 µg/mL
[5]
  Killing rate (time to MBC90): 7 min
[6]
  Concentration of peptide to induce 50% haemolysis: 290 µg/mL

## CC[C@H](C)[C@H](NC(=O)[C@H](CCCCN)NC(=O)[C@H](C)NC(=O)[C@H](CCCCN)NC(=O)CNC(=O)[C@H](CCCCN)NC(=O)[C@H](CC(C)C)NC(=O)[C@H](CCCCN)NC(=O)[C@H](Cc1ccccc1)NC(=O)CN)C(=O)N[C@@H](CO)C(=O)N[C@@H](CS)C(=O)N[C@@H](CC(C)C)C(=O)N1CCC[C@H]1C(=O)N[C@@H](CC(N)=O)C(=O)NCC(=O)N[C@@H](CCC(N)=O)C(=O)N[C@@H](Cc1c[nH]c2ccccc12)C(=O)N[C@@H](CO)C(=O)N[C@@H](CC(N)=O)C(=O)N[C@@H](Cc1ccccc1)C(=O)N1CCC[C@H]1C(=O)N1CCC[C@H]1C(=O)N[C@@H](CCCCN)C(=O)N[C@@H](CS)C(=O)N[C@H](C(=O)N[C@@H](CCCNC(=N)N)C(=O)N[C@@H](CCC(=O)O)C(=O)N[C@@H](CS)C(=O)N[C@@H](C)C(=O)N[C@@H](CCSC)C(=O)N[C@H](C(=O)N[C@@H](CO)C(=O)N[C@@H](CO)C(=O)O)C(C)C)[C@@H](C)CC [S1Δ] (H-GFKLKGKAKISCLPNGQWSNFPPKCIRECAMVSS-OH; N-terminus and C-terminus assumed)
[1]
  EC50: 875 nM
[3]
  protection: 22-100%
  decrease in LPS-induced lethality: 20-55%
[4]
  MBC90: 16 nM
  MBC50: ≤0.03 µg/mL
[4]; concentration of peptide required to kill 90% of the strains
  MBC90: 0.06 µg/mL
[5]
  Killing rate (time to MBC90): 7 min
[6]
  Concentration of peptide to induce 50% haemolysis: 295 µg/mL

## BPI pep85-99 (15 mer): 15 mer peptide of BPI (IKISGKWKAQKRFLK; UniProt P17213 116-130, looked up, fragment)
[7]
  Kd: 1760 nM

## HAEHKVKIGVEQKYGQFPQGTEVTYTCSGNYFLM [S3]
[6]
  Concentration of peptide to induce 50% haemolysis: 160 µg/mL

## HAEHKVKIKVKQKYGQFPQGTEVTYTCSGNYFLM [S3Δ]
[6]
  Hemolytic activity: 35%
  Concentration of peptide to induce 50% haemolysis: 120 µg/mL
[6]; listed as SΔ3
  Hemolytic activity: 35% at 100 µg/ml

## Indolicin: cationic peptide (ILPWKWPWWPWRR; ends and bridges not checked; UniProt P33046 131-143, looked up)
[8]
  MBC50: 64 µg/mL
  MBC90: >128 µg/mL

## Magainin II
[8]
  MBC50: 64 µg/mL

## Nisin
[8]
  MBC50: 128 µg/mL

## Ranalexin
[8]
  MBC50: >128 µg/mL
